Results: paper PMC8155176, “Reversible modulation of circadian time with chronophotopharmacology” (Nature Communications, 2021)

Tests used:
SCN explants = assay: Ex vivo circadian period, SCN explants of Per2::Luc knock-in mice; parameters: species or system mouse; conditions: 18 µM
Protocol: Next, we applied the light-dependent period control to the tissue level using explants of Per2::Luc knock-in reporter mice. The mice express PER2-luciferase fusion protein under control of the endogenous Per2 promoter. […] The spleen explants were treated with thermally adapted trans-9, then irradiated with green light (λmax = 530 nm) or kept in dark, and luminescence rhythms were measured (Fig. 6a, b). […] In addition to the peripheral clock in spleen, we investigated the effect of compound 9 on the central clock in the hypothalamic suprachiasmatic nucleus (SCN) that controls behavioral rhythms. […]
(§1) Fig. 6 Ex vivo photo-modulation of the circadian period in mouse tissue explants. a–c The spleen explants of the Per2::Luc knock-in reporter mice were applied with 12 µM compound 9 and irradiated with green light (λmax = 530 nm) for 0 min (dark, black) or 30 min (green). Luminescence rhythms were then monitored and shown in a (mean of n = 5 for dark and n = 6 for green light). […] Luminescence is given in arbitrary units. n = 5 biologically independent samples for dark and n = 6 for green light. […] Luminescence rhythms of a representative sample for each condition are shown in d. […]
To harvest the suprachiasmatic nucleus (SCN), Per2::Luc heterozygote neonatal mice at postnatal day four to seven were euthanized. […] Circadian period was calculated by a cosine curve fitting. […]

spleen explants = assay: Ex vivo circadian period, spleen explants of Per2::Luc knock-in mice; parameters: species or system mouse; conditions: 12 µM
Protocol: Next, we applied the light-dependent period control to the tissue level using explants of Per2::Luc knock-in reporter mice. The mice express PER2-luciferase fusion protein under control of the endogenous Per2 promoter. […] The spleen explants were treated with thermally adapted trans-9, then irradiated with green light (λmax = 530 nm) or kept in dark, and luminescence rhythms were measured (Fig. 6a, b). […] In addition to the peripheral clock in spleen, we investigated the effect of compound 9 on the central clock in the hypothalamic suprachiasmatic nucleus (SCN) that controls behavioral rhythms. […] Together, compound 9 enabled light-dependent inducible control of the circadian period at both cellular and tissue levels.
as §1, with “light). Baseline-subtracted data are shown in b. Period changes compared to a DMSO control are plotted in c.” for “light).”

Structure (SMILES): CC(C)n1cnc2c(NCc3ccc(F)c(/N=N/c4c(F)cccc4F)c3F)ncnc21 [Compound 9]
- period effect of thermally adapted compound (SCN explants; applied on day 4): induced period lengthening
- period effect upon green light irradiation (SCN explants; green light on day 8): reduced
- period effect after green light irradiation (spleen explants; 530 nm 30 min): suppressed the period-lengthening effect
- period effect vs DMSO control, dark (spleen explants; dark): period lengthening
